Earlier results as cited in patent US20150017242A1 (Lupin Limited, priority 2012, published 2015).
Like-named read-outs stand apart in the source and are kept apart here.

Tests used:
[1] = not given; remark: listed apart in the source

CCCCc1oc2ccc(NS(C)(=O)=O)cc2c1C(=O)c1ccc(OCCCN(CCCC)CCCC)cc1.Cl [Dronedarone, N-{2-butyl-3-[4-(3-dibutylaminopropoxy)benzoyl]benzofuran-5-yl}methane sulfonamide, hydrochloride]
absolute oral bioavailability (administered with a high fat meal): approx. 15% | absolute oral bioavailability (fasting): 4% | behaviour at higher pH condition [1]: precipitates out
